Assay results: patent US20150030683A1, “FORMULATIONS AND METHODS FOR THE TREATMENT OR PROPHYLAXIS OF PRE-MCI AND/OR PRE-ALZHEIMER'S CONDITIONS” (BUCK INSTITUTE FOR RESEARCH ON AGING, priority 2012, published 2015)

Key:
[1] = Brain uptake testing (PK): plasma and brain levels by LC/MS/MS; design: species or system mice; conditions: mouse, in vivo, sc; for Kp: 10 mg/kg
Method: In general, CNS exposure studies consisted of collection of heparinized plasma and brains after treatment with tropisetron, nimetazepam, disulfiram and honokiol following subcutaneous (sc) administration of the molecules at 10 mg/kg. Plasma and brain levels of the agent(s) were determined by quantitative LC/MS/MS methodology, conducted at Integrated Analytical Solutions (on the internet at ianalytical.net). Plasma samples were precipitated with acetonitrile:methanol (1:1) cocktail containing an internal standard. The brain samples were homogenized directly in ethylacetate or extracted from 5M guanidine homogenates using the liquid-liquid method. The resulting supernatant were evaporated to dryness and subjected to the LC/MS/MS analysis. For each agent 3 mice were used for analysis. The brain-to-plasma ratios and brain levels were then be calculated to identify the best candidate(s) for further testing.

[2] = Degradation in brain tissue; type: in vitro ADME; conditions: probably reduced at the disulfide bond
[3] = test system: 7W cells stably transfected with APP; assay: […] assay in 7W APP transfected cells; type: cell-based; conditions: 1 μM agent, 24 h
Method: 7W CHO cells were seeded at 50,000 cells/well in a 96 wells plate for 24 h. Then their medium was changed for fresh medium supplemented with 1 μM of the agent(s) of interest (e.g., tropisetron, disulfiram, honokiol, and/or nimetazepam). After 24 h, 20 μl of the medium was added to 2 μl of the complete protease inhibitor with 1 μM EDTA and kept at 4° C. until analysis. 2 μl of that medium was treated with the Perkin Elmer (PE) […]® Aβ kit to determine the amount of Aβ42 secreted by the cells in 24 h using the PE-Enspire reader. Another aliquot of 2 μl of the medium was diluted with 50 μl of the PE […]® buffer and was treated with the PE […]® sAPPαkit to determine the amount of sAPPαsecreted by the cells in 24 h. For the assay, 2 μl of the final mixture was treated with the acceptor bead and the donor antibody followed by addition of the donor beads and the […]® signal was measured using a PE-Enspire reader. For measurement of APPneo, the 50,000 cells were treated after seeding with fresh medium supplemented with or without the agent(s), but without fetal bovine serum (FBS), in order to induce the formation of the APPneo fragment. After 24 h the medium was removed, the cells on the bottom of the wells were washed three times with phosphate buffered saline (PBS) and then lysed with 50 μl of the Perkin Elmer […]® buffer and with 10% of the complete protease inhibitor with EDTA. […]

[4] = test system: sAPPα, Aβ40 and Aβ42 levels; assay: Aβ40/42, sAPPα levels in brain (PD) of Alzheimer's disease transgenic mice (PDAPP model); type: in vivo; conditions: Tg mice; for sAPPα levels in hippocampus (Hip) and entorhinal cortex (ECx) / Aβ40 levels / Aβ42 levels: 10 mpk sc, 5 days
Method: […]® kits from Perkin Elmer (PE) were used to quantify sAPPα (cat#: AL254C), sAPPβ (cat#: AL232C), Aβ40 (cat #: AL275C), Aβ42 (cat #: AL276C) and Tau (cat#: AL271C) from brain homogenates. The samples are added to an AlphaPlate-384 (cat#: 6005350). Twenty microliters (μl) of acceptor bead antibody mix was added to each five μl cerebrospinal fluid (CSF) sample and allowed to incubate for one hour at room temperature. Next, 25 μl of donor beads were added and allowed to incubate in the dark for 30 minutes at room temperature. Fluorescence was then measured on an EnsPire 96-well plate reader (Perkin-Elmer).
ELISA kits from Invitrogen were also used to quantify Aβ1-40 (KHB3481) and Aβ1-42 (KHB3544) in duplicate from the CSF samples stored at −80° C. For assay, samples were thawed on ice and BSL-2 precautions practiced at all times. For the human Aβ 1-42 ultrasensitive ELISA, samples were diluted 1:2 (50 μl CSF plus 50 μl kit-provided standard diluent buffer). For the human Aβ1-40 ELISA, samples were diluted 1:15 (6.7 μl CSF plus […] of standard diluent buffer). Assays were performed according to manufacturer's instructions. In short, standards and samples were added to a plate pre-coated with a monoclonal capture antibody specific for the amino terminus of Hu Aβ. The samples were co-incubated with a rabbit detection antibody (Ab) specific for the carboxy terminus of the Aβ species being assayed for 3 hr at room temperature (Aβ 1-40) to overnight at 4° (Aβ 1-42) with gentle rocking After washing, bound rabbit Ab was detected using a horseradish peroxidase-labeled anti-rabbit secondary Ab. After washing again, bound HRP-anti rabbit Ab was detected colorimetrically (Spectramax 190, Molecular Devices) by the addition of a substrate solution. 1 mM 4-(2-Aminoethyl)benzenesulfonyl fluoride hydrochloride (AEBSF) protease inhibitor (101500, Calbiochem) was added to standards and samples.
In general, as part of the CNS exposure studies in Alzheimer's disease transgenic (Tg) mice (e.g., the PDAPP mouse model of Alzheimer's disease), tropisetron, nimetazepam, disulfiram and honokiol effects on biomarkers were also measured. In case of tropisetron the testing was done at 0.3 mpk, while in case of the other agent(s) (e.g., nimetazepam, disulfiram and honokiol) it was done at 10 mpk. From the collected brains the hippocampi were dissected. Levels of sAPPα, and Aβ1-40 and Aβ1-42 were measured by […] assay ([…] Perkin-Elmer), and Aβ1-42 (Invitrogen, sensitive ELISA kit) in brain homogenates of Tg mice. All procedures involved have been described (Galavan 2006, Proc Natl Acad Sci USA, 103, 7130-7135). […] The brain-to-plasma ratio (PK) of tropisetron and sAPPalpha/Aβ42 ratios (PD) were then determined.

MBP-eAPP230-624 = biological target: T1, MBP-eAPP230-624 (Homo sapiens, UniProt P05067); assay: Small-angle X-ray scattering of MBP-eAPP230-624 incubated with the agent; type: binding; conditions: for MWcalc/MWseq / Rg (radius of gyration) / Dmax (maximum dimension): MBP-eAPP230-624 incubated with 50 μM agent, 4° C., 1 hour; for MWcalc/MWseq: ± 0.2; for Rg (radius of gyration): ± 2; for Dmax (maximum dimension): ± 10; for Binding to APP (MBP-eAPP230-624) and effect on conformation/dimerization: small-angle X-ray scattering, 50 μM agent
T1 construct: purified MBP-eAPP230-624 were incubated with 50 μM Disulfiram or 50 μM Sulfiram
T1 sequence (P05067 230-624 isoform P05067-4): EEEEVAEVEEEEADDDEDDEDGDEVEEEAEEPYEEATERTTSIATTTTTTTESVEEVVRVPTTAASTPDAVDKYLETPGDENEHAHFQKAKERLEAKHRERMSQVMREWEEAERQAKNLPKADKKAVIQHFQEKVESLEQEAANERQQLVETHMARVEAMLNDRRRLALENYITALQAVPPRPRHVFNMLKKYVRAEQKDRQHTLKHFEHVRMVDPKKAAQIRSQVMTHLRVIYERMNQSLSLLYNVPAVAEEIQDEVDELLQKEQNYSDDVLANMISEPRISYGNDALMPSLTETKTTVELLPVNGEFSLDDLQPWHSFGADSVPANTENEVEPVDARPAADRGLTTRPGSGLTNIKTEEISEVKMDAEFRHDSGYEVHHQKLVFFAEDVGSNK
Method: To 100 μg of purified MBP-eAPP230-624 were incubated with 50 μM Disulfiram or 50 μM Sulfiram in 20 mM sodium phosphate pH 7.4, 137 mM sodium chloride, 0.05% dimethyl sulfoxide at 4° C. for 1 hour. The control sample was incubated in the buffer alone. The samples were then concentrated to approximately 1.5 mg/ml using […] NML concentrators. Small-angle X-ray scattering data were collected using protein concentrations in the range of 0.25-1.5 mg/ml and an X-ray wavelength of 1.11 Å at beam line 12.3.1 (Advanced Light Source). Samples of the filtrate were used for buffer subtraction. Data were integrated with software customized for the beam line and processed with the program PRIMUS (Konarev (2003) Journal of Applied Crystallography 36, 1277-1282). The program GNOM (Svergun (1992) J. Appl. Crystallogr. 25, 495-503) was used to calculate the maximum dimension and the radius of gyration and to estimate the intensity of the scattering at zero angle for higher concentration samples. The molecule weight of each protein was calculated by comparing to the scattering of proteins of known molecule weight.
The apparent drop in molecular weight and maximum dimension (Dmax) are consistent with both sulfiram and disulfiram disrupting the MBP-eAPP230-624 dimers.

[5] = known for the benzodiazepine; cited from earlier work

Compound	blood-brain-barrier / brain penetration [1]	Kp [1]	Stability in brain tissue [2]	sAPPα levels secreted by 7W cells [3]	Aβ levels ([4]; 10 mpk)	sAPPα levels in hippocampus (Hip) and entorhinal cortex (ECx) [4]	MWcalc/MWseq (MBP-eAPP230-624)	Rg (radius of gyration) (MBP-eAPP230-624) [Å]	Dmax (maximum dimension) (MBP-eAPP230-624) [Å]	Binding affinity compared with sulfiram (MBP-eAPP230-624; inferred from greater effect in X-ray scattering)	Binding to APP (MBP-eAPP230-624) and effect on conformation/dimerization (MBP-eAPP230-624)	Binding to APP (MBP-eAPP230-624) and effect on conformation/dimerization (MBP-eAPP230-624; listed as disulfiram)	Aβ40 levels [4]	Aβ42 levels [4]	blood-brain-barrier crossing [5]	sAPPα levels in hippocampus (Hip) and entorhinal cortex (ECx) ([4]; 10 mg/kg)	sAPPα levels in hippocampus (Hip) and entorhinal cortex (ECx) ([4]; listed as nimetazepam, 10 mg/kg)
CCN(CC)C(=S)SSC(=S)N(CC)CC [Disulfiram, 1,1′,1″,1′″-[disulfanediylbis(carbonothioylnitrilo)]tetraethane]	low blood-brain-barrier penetration	< 0.1	degrades rapidly	increase	no changes	no changes	1.5	51	160	higher binding affinity	can bind to APP and disrupt APP dimerization	bind to MBP-eAPP230-624 and alter the conformation of the protein	–	–	–	–	–
C=CCc1ccc(O)c(-c2ccc(O)c(CC=C)c2)c1 [Honokiol, 2-(4-hydroxy-3-prop-2-enyl-phenyl)-4-prop-2-enyl-phenol]	penetrates the brain well	~1	–	–	–	no significant increase	–	–	–	–	–	–	No significant changes	No significant changes	–	–	–
CN1C(=O)CN=C(c2ccccc2)c2cc([N+](=O)[O-])ccc21 [Nimetazepam, 2-methyl-9-nitro-6-phenyl-2,5-diazabicyclo [5.4.0]undeca-5,8,10,12-tetraen-3-one]	–	–	–	–	–	–	–	–	–	–	–	–	No significant changes	No significant changes	known to cross the blood-brain-barrier well	significant increase	increase
CCN(CC)C(=S)SC(=S)N(CC)CC [Sulfiram]	–	–	–	–	–	–	1.7	53	170	–	bind to MBP-eAPP230-624 and alter the conformation of the protein	–	–	–	–	–	–
